Results published in patent US20080281105A1, “Novel Quinolinium Salts and Derivatives” (IMMUSOL INCORPORATED, priority 2005, published 2008).

Experiments:
[1] = test system: A549 cancer cells; experiment: A549 NSCL xenograft model, combination with 2DG; assay type: in vivo, mice; details: 2DG 300 mg/kg, Example 36 2 mg/kg, i.p. daily (6 times per week); Example 36 alone p<0.05 at day 24 and 27; combination p<0.05 at day 13-27; FIG. 7
Excerpt: Because the compounds of the invention may be more toxic to cancer cells deprived of glucose or treated with 2DG in vitro, the combination of 2DG with such compounds should have increased anti-tumor efficacy in vivo as compared with either agent alone. Accordingly, the effect of a combination therapy of the compound of Example 36 and 2DG using A549 NSCL xenograft model was examined.
Female athymic nude mice (nu/nu) (4-6 weeks old) were inoculated (s.c.) with 5×10^6 A549 cancer cells in PBS on the flanking site. After the tumors reached an average size ˜100 mm^3, the animals were divided into four treatment groups—0.9% NaCl (control), 2DG at 300 mg/kg, the compound of Example 36 at 2 mg/kg, and a combination of 2DG (300 mg/kg) and the compound of Example 36 (2 mg/kg). All the treatments were delivered by intraperitoneal injection daily (6 times per week). Tumor size and body weight were measured twice per week. Tumor volume was calculated using the formula TV=length×width×width/2.

[2] = test system: Panc-1, HCT-116, Pc3M/N, HEPG2, ASPC1, or H460 cells; experiment: Reduction of viable cell growth in glucose deprived media (liquid culture, alamarBlue); assay type: cell-based; details: for EC50: concentration giving at least 50% reduction of viable cell growth
[3] = test system: Lewis lung cancer cells; experiment: Mouse Lewis lung cancer (LLC) xenograft model; assay type: in vivo, mice; details: 2 mg/kg intraperitoneal, 6 times per week; day 15; p<0.05; FIG. 6
Method: Using the mouse Lewis lung cancer (LLC) xenograft model, female C57BL mice (4-6 weeks old) were inoculated (s.c.) with 5×10^5 Lewis lung cancer cells in PBS on the flanking site. Animals were randomly divided into treatment and control groups (n=8) based on tumor size when average tumor size reached 100 mm^3. Animals in the treatment group received the compound of Example 36 (also designated IMS2143) or the compound of Example 47 daily at 2 mg/kg via intraperitoneal dosing, 6 times per week respectively. The control group was injected with 0.9% NaCl. Tumor size and body weight were measured twice per week. Tumor volume was calculated using the formula TV=length×width×width/2.

[4] = test system: Lewis lung cancer cells; experiment: Mouse LLC model, combination with 2DG; assay type: in vivo, mice; details: Example 36 2 mg/kg, 2DG 300 mg/kg, i.p. 6 times per week; p<0.05; FIG. 8
Method: More specifically, female C57BL mice (4-6 weeks old) were inoculated (s.c.) with 5×10^5 Lewis lung cancer cells in PBS on the flanking site. Animals were randomly divided into treatment and control groups (n=8) based on tumor size when average tumor size reached 100 mm^3. Animals in the treatment groups received the compound of Example 36 daily at 2 mg/kg and 2DG at 300 mg/kg via intraperitoneal dosing, 6 times per week respectively. Tumor size and body weight were measured twice per week. Tumor volume was calculated using the formula TV=length×width×width/2.

[5] = test system: A549 cancer cells; experiment: A549 xenograft model, combination with taxol; assay type: in vivo, mice; details: paclitaxel 20 mg/kg once per 4 days i.p.; IMS2155 2 mg/kg daily i.p.; p<0.05 for monotherapies; FIG. 5
Method: Combination treatment with taxol and the compound of Example 47 (also designated IMS2155) in the A549 (NCLC) model was tested. Taxol is one of standards of care for lung cancer.
Female athymic nude mice (nu/nu) (4-6 weeks old) were inoculated (s.c.) with 5×10^6 A549 cancer cells in PBS on the flanking site. The animals were divided into four treatment groups when the average tumor size reached 150 mm^3: group 1 (PBS daily i.p. dosing), group 2 (20 mg/kg paclitaxel once per 4 days i.p. dosing), group 3 (2 mg/kg IMS2155 daily i.p. dosing) and group 4 (20 mg/kg paclitaxel once per 4 days i.p. dosing and 2 mg/kg IMS2155 daily i.p. dosing). The tumor size and body weight was measured twice per week. Tumor volume was calculated using the formula TV=length×width×width/2.
It is noteworthy that IMS2155 worked almost as well as Taxol at the MTD dose (20 mg/kg for this strain of mice).

[6] = test system: H460 NSCL cells; experiment: Non-small cell lung cancer (NSCL) xenograft early stage model in nude mice; assay type: in vivo
Method: The anti-tumor activity of the compound of Example 56 was tested in a nude mice xenograft early stage model. Female athymic nude (nu/nu) mice were inoculated with H460 NSCL cells and divided into two groups. The first group was dosed with vehicle (control), and the second group was dosed i. p. with the compound of Example 56 on a daily basis (6 times/week).

[7] = test system: eukaryotic translation system; details: reported by Malina; cited from earlier work
[8] = test system: PC3 prostate cells; experiment: PC3 medium-staged prostate xenograft model, combination therapy; assay type: in vivo, mice; details: Example 1 P.O. daily, doxorubicin or paclitaxel i.p.; tumors around 100 mm^3 at start; FIG. 3 and 4
Method: The anti-tumor activity of compounds of the invention in combination with at least one additional chemotherapeutic agent was also tested in a nude mice xenograft model.
(§1) A. Female athymic nude (nu/nu) mice were inoculated with PC3 prostate cells. When tumor volumes reached around 100 mm^3, the animals were divided into four groups with average size of tumors similar among the four groups. The first group was dosed with vehicle (as control), the second group with the compound of Example 1 (P.O. daily), the third with doxorubicin (i.p.) and the fourth with the combination (i.p. Dox/p.o. compound of Example 1).
as §1, with “B.” for “A.”, “paclitaxel (taxol)” for “doxorubicin”, “(ip. taxol/p.o.” for “(i.p. Dox/p.o.”

[9] = test system: transformed cell growth; details: reported in the literature; cited from earlier work

EC50 [2] [µM] | SMILES | other results
 | O=CC[C@@H](O)[C@H](O)[C@H](O)CO [Example 2DG, 2-deoxyglucose, reference compound] | A549 tumor growth [1]: no response
< 1 | COCCn1c(C)c(C=O)c(/C=C/c2ccc3cc(N(C)C)ccc3[n+]2C)c1C [Example 25] | 
1 | Cc1cc(/C=C/c2ccc3cc(N4CCOCC4)ccc3[n+]2C)c(C)n1-c1ccccc1 [Example 26] | 
> 1 | CCCCn1c(C)c(C=O)c(/C=C/c2ccc3cc(N4CCOCC4)ccc3[n+]2C)c1C [Example 27] | 
< 1 | Cc1c(C=O)c(/C=C/c2ccc3cc(N(C)C)ccc3[n+]2C)c(C)n1-c1ccccc1 [Example 28] | 
1 | Cc1cc(/C=C/c2ccc3cc(N4CCC(C)CC4)ccc3[n+]2C)c(C)n1-c1ccccc1 [Example 30] | 
1 | CN(C)c1ccc2c(ccc(/C=C/c3ccc(-c4ccccc4)s3)[n+]2C)c1 [Example 32] | 
1 | Cc1cc(/C=C/c2ccc3cc(N(C)C)ccc3[n+]2C)oc1C [Example 33] | 
1 | CN(C)c1ccc2c(ccc(/C=C/c3cccc(Oc4ccccc4)c3)[n+]2C)c1 [Example 34] | 
< 1 | CN(C)c1ccc2c(ccc(/C=C/c3ccc(Oc4ccccc4)cc3)[n+]2C)c1 [Example 35] | 
< 1 | CCCCOc1ccc(/C=C/c2ccc3cc(N(C)C)ccc3[n+]2C)cc1.O=S(=O)([O-])C(F)(F)F [Example 36] | A549 tumor growth [1]: significantly inhibited tumor growth; LLC tumor growth [3]: significantly suppressed tumor growth; LLC tumor growth as compared with 2DG alone or control [4]: significantly inhibited tumor growth
1 | CN(C)c1ccc2c(ccc(/C=C/c3ccc(-c4cc(C(F)(F)F)nn4C)s3)[n+]2C)c1 [Example 37] | 
1 | CN(C)c1ccc2c(ccc(/C=C/c3ccc(-c4nn(C)cc4C(F)(F)F)s3)[n+]2C)c1 [Example 38] | 
> 1 | CCCCc1nc(/C=C/c2ccc3cc(N(C)C)ccc3[n+]2C)c(Cl)[nH]1 [Example 39] | 
1 | CN(C)c1ccc2c(ccc(/C=C/c3coc4ccccc4c3=O)[n+]2C)c1 [Example 40] | 
1 | CN(C)c1ccc2c(ccc(/C=C/c3cn(S(=O)(=O)c4ccccc4)c4ccccc34)[n+]2C)c1 [Example 41] | 
1 | CN(C)c1ccc2c(ccc(/C=C/c3ccc4oc(C(=O)c5ccc(Cl)cc5)cc4c3)[n+]2C)c1 [Example 42] | 
< 1 | CN(C)c1ccc2c(ccc(/C=C/c3ccc(OCc4ccsc4C#N)cc3)[n+]2C)c1 [Example 43] | 

EC50 [2] [µM] | SMILES | other results
1 | CN(C)c1ccc2c(ccc(/C=C/c3ccc(OC(F)(F)F)cc3)[n+]2C)c1 [Example 44] | 
< 1 | COc1cc(/C=C/c2ccc3cc(N(C)C)ccc3[n+]2C)ccc1OCc1ccccc1 [Example 45] | 
< 1 | CN(C)c1ccc2c(ccc(/C=C/c3ccc(OCc4ccccc4)cc3)[n+]2C)c1 [Example 46] | 
< 1 | Cc1cc(/C=C/c2ccc3cc(N(C)C)ccc3[n+]2C)cc(C)c1OCc1ccccc1.O=S(=O)([O-])C(F)(F)F [Example 47] | A549 tumor size [5]: significant reduction in tumor size; LLC tumor growth [3]: significantly suppressed tumor growth
> 1 | Cc1c(/C=C/c2ccc3cc(N(C)C)ccc3[n+]2C)cnn1-c1ccccc1 [Example 48] | 
< 1 | CN(C)c1ccc2c(ccc(/C=C/c3sccc3Oc3ccccc3)[n+]2C)c1 [Example 49] | 
< 1 | CN(C)c1ccc2c(ccc(/C=C/c3ccc(C#Cc4ccccc4)s3)[n+]2C)c1 [Example 50] | 
< 1 | CCn1c2ccccc2c2cc(/C=C/c3ccc4cc(N(C)C)ccc4[n+]3C)ccc21 [Example 51] | 
> 1 | CN(C)c1ccc2c(ccc(/C=C/c3cc(C(=O)c4ccc(F)cc4)cn3C)[n+]2C)c1.O=S(=O)([O-])C(F)(F)F [Example 52] | reduction of viable cell growth ([2]; at the concentration stated in Table 3): inactive
< 1 | CCOC(=O)c1c(/C=C/c2ccc3cc(N(C)C)ccc3[n+]2C)c(C)n(C2CC2)c1C [Example 53] | 
< 1 | CCOC(=O)c1c(/C=C/c2ccc3cc(N(C)C)ccc3[n+]2C)c(C)n(-c2ccccc2)c1C [Example 54] | 
< 1 | CCOC(=O)c1c(/C=C/c2ccc3cc(N(C)C)ccc3[n+]2C)c(C)n(Cc2cccs2)c1C [Example 55] | 
< 1 | CCCCn1c(C)c(C=O)c(/C=C/c2ccc3cc(C)ccc3[n+]2C)c1C [Example 57] | 
< 1 | CCCCn1c(C)c(C=O)c(/C=C/c2ccc3cc(Cl)ccc3[n+]2C)c1C [Example 58] | 
 | Cc1cc(C=Cc2ccc3cc(OC(N)=O)ccc3[n+]2C)c(O)c2ncccc12 [NSC 86372, 6-(aminocarbonyloxy)-2-(2-(8-hydroxy-5-methylquinolin-7-yl)vinyl)-1-methylquinolinium] | protein synthesis [7]: inhibited protein synthesis
 | CC(=O)O[C@H]1C(=O)[C@@]2(C)[C@H]([C@H](OC(=O)c3ccccc3)[C@]3(O)C[C@H](OC(=O)[C@H](O)[C@@H](NC(=O)c4ccccc4)c4ccccc4)C(C)=C1C3(C)C)[C@]1(OC(C)=O)CO[C@@H]1C[C@@H]2O [Taxol, paclitaxel, reference compound] | growth of PC3 medium-staged xenograft tumors [8]: reduced tumor size significantly; A549 tumor size [5]: significant reduction in tumor size
 | CC[n+]1c(C=Cc2ccc(N(C)C)cc2)ccc2ccccc21 [quinaldine red] | transformed cell growth [9]: inhibitor of transformed cell growth

SMILES | EC50 [2] [µM] | other results
Cc1cc(/C=C/c2ccc3cc(N4CCCCC4)ccc3[n+]2C)c(C)n1-c1ccccc1 [Example 29] | 1 | 
CN(C)c1ccc2c(ccc(/C=C/c3cccc(-c4cccs4)n3)[n+]2C)c1 [Example 31] | 1 | 
CCCCn1c(C)c(C=O)c(/C=C/c2ccc3cc(N(C)C)ccc3[n+]2C)c1C.CS(=O)(=O)[O-] [Example 56] | < 1 | Result: Tumor reduction ([6]; NSCL, H460 xenograft, I.p.): Tumor reduction (41%); H460 tumor size as compared to control ([6]; dosed i.p. daily (6 times/week), p<0.05, FIG. 2): significant reduction; toxicity ([6]; nude mice, H460 xenograft, i.p. daily (6 times/week)): no apparent toxicity
